Key:
[1] = Phase 1 12-week NAFLD study (Example 1): body weight loss; format: in vivo, human; conditions: for weight loss: week 12; for placebo-adjusted weight loss: 12 weeks
Source text: Provided herein is disclosure of a Phase 1, multicenter, randomized, double-blind, placebo-controlled study to assess the effects of Pemvidutide (also termed herein as ALT-801), the safety of Pemvidutide and effects on hepatic fat fraction, anthropometric parameters, lipid metabolism, inflammatory markers and fibrosis markers in diabetic and non-diabetic (type 2 diabetes) overweight and obese (BMI 28.0 kg/m^2) subjects with NAFLD. This study was designed to assess changes in hepatic fat fraction by MRI-PDFF (magnetic resonance imaging-proton density fat fraction) in diabetic and non-diabetic overweight and obese subjects with NAFLD after 12 weeks of ALT-801 treatment. The trial was conducted without adjunctive diet and exercise interventions. The study assessed changes in body weight, lipid metabolism, metabolic markers, and inflammatory markers and safety and tolerability of ALT-801 after 12 weeks of treatment. Subjects were stratified for the presence or absence of diabetes at baseline. Fibroscan and cT1 assessments evaluated changes in liver inflammatory and fibrotic activity at the end of 12 weeks of treatment.
Overweight and obese volunteers with BMI ≥28 kg/m^2 were studied because this is the typical population of individuals with NAFLD, and these subjects are able to better tolerate the predicted Pharmacodynamics (PD) effect of weight loss and could even benefit from treatment. A hepatic fat fraction of 10% has been typical for the evaluation of hepatic fat fraction in subjects with NAFLD. In other words, individuals with a liver fat fraction of 10% or greater are typically diagnosed with NAFLD. Diabetic subjects that require insulin, sulfonylureas or DDP-4 inhibitors for control of diabetes were excluded in this study. Exclusions were instituted that might otherwise affect an accurate assessment of the effects of ALT-801 on safety or PD. The BMI upper limit is set to 45 kg/m^2 as subjects over this BMI are no likely to fit into the MRI scanner.
The study, described in this example, was carried out in 94 subjects overweight and obese (body mass index [BMI] ≥28.0 kg/m^2) Type 2 diabetic and non-diabetic subjects with nonalcoholic fatty liver disease (NAFLD) over about 4.5 months, including up to a 35-day screening period, and 85-day treatment period and a 25-day follow-up period, with treatment with ALT-801 (a composition comprising SEQ ID NO.: 1, “study medication”) or placebo administered by subcutaneous (SC) injection once weekly for up to twelve (12) doses.
The safety objective of this study was to assess the safety and tolerability of ALT-801 in 18-65 years old subjects with NAFLD (NAFLD without significant fibrosis, defined as FibroScan® controlled attenuation parameter (CAP) ≥280 dB/m and liver stiffness measurement (LSM)<10 kPa (i.e., indicating the absence of significant fibrosis), magnetic resonance imaging derived proton density fat fraction (MRI-PDFF) ≥10%), hemoglobin Alc (HbAlc) of less than 9.5%, and alanine aminotransferase (ALT) or aspartate aminotransferase (AST) values of ≤[…]. The pharmacodynamic (PD) objectives of this study were to evaluate the effects of ALT-801 on hepatic fat fraction, anthropometric parameters, lipid metabolism, metabolic markers, inflammatory markers, fibrosis markers, and lipotoxicity markers. The pharmacokinetic (PK) objectives of this study were to evaluate the effects of ALT-801 and metformin exposure (drug interactions) on the subjects (e.g., ALT-801 and metformin concentrations in blood over time).
After providing informed consent, subjects underwent a screening period of up to 35 days. Subjects were instructed on how to maintain their normal diets, alcohol consumption and physical activities and not to start any new diets, supplements, or exercise programs at any time while participating in the study. […]

liver fat content = test: Phase 1b 24-week NAFLD study (Example 3): liver fat content and liver volume by MRI-PDFF; format: in vivo, human
Source text: Provided herein is disclosure of a 12-week extension study of the study provided in Example 1, providing a 24-week a Phase 1b, randomized, double-blind, placebo-controlled study to assess the effects of pemvidutide (also termed herein as ALT-801), the safety of pemvidutide and effects on weight loss, hepatic fat fraction, anthropometric parameters, lipid metabolism, as well as inflammatory, fibrosis and other markers in diabetic and non-diabetic (type 2 diabetes) overweight and obese (BMI≥28.0 kg/m^2) subjects with NAFLD (defined as liver fat content (LFC) by MRI-PDFF ≥10%; absence of significant fibrosis, defined as FibroScan® LSM ≤10 kPa), alanine aminotransferase (ALT) and aspartate aminotransferase (AST) laboratory values of ≤75 IU/L and HbA1c <9.5. Men and women aged 18-65 years were studied. Diabetic subjects were defined as those that have undergone stable dose (≥3 months) metformin or SLGT-2 therapy and no use of insulin, sulfonylureas, DPP-4, GLP-1 treatment; Ninety-four (94) subjects were enrolled in the initial 12-week Phase 1b NAFLD trial and 83 subjects who completed were invited to receive a total of 12 additional weeks of blinded treatment. Of those subjects, 66 consented to rollover, of which 64 were eligible to participate.
The primary endpoint of this study was a reduction in liver fat content (LFC) by MRI-PDFF at Week 24 compared to Week 0 (zero). Key secondary endpoints include percent (%) weight loss at Week 24 compared to Week 0 (zero), and liver inflammation by alanine aminotransferase (ALT) levels and corrected T1 (cT1) imaging at Week 24 as compared to Week 0 (zero). Adverse events (AEs), including serious and severe AEs, AEs leading to discontinuation, GI tolerability, vital signs, and glycemic control including fasting glucose and HbA1c levels were also measured.

CC[C@H](C)[C@H](NC(=O)[C@H](Cc1ccccc1)NC(=O)[C@H](CCC(=O)O)NC(=O)[C@@H]1CCCCNC(=O)CC[C@H](NC(=O)[C@H](CC(=O)O)NC(=O)[C@H](CC(C)C)NC(=O)[C@H](Cc2ccc(O)cc2)NC(=O)[C@H](CCCCN)NC(=O)[C@H](CO)NC(=O)[C@H](Cc2ccc(O)cc2)NC(=O)[C@H](CC(=O)O)NC(=O)[C@H](CO)NC(=O)[C@@H](NC(=O)[C@H](Cc2ccccc2)NC(=O)[C@@H](NC(=O)CNC(=O)[C@H](CCC(N)=O)NC(=O)C(C)(C)NC(=O)[C@@H](N)Cc2c[nH]cn2)[C@@H](C)O)[C@H](C)O)C(=O)N[C@@H](CCCCNC(=O)C2O[C@@H](OCCCCCCCCCCCCCCCCCC(=O)O)C(O)C(O)[C@@H]2O)C(=O)N[C@@H](C)C(=O)N[C@@H](C)C(=O)N1)C(=O)N[C@@H](CCC(N)=O)C(=O)N[C@@H](Cc1c[nH]c2ccccc12)C(=O)N[C@@H](CC(C)C)C(=O)N[C@@H](CC(C)C)C(=O)N[C@@H](CCC(N)=O)C(=O)N[C@H](C(N)=O)[C@@H](C)O (some centres unmarked) [ALT-801, Pemvidutide]
weight loss ([1]; all subjects, 1.2 mg): 3.4%
weight loss ([1]; all subjects, 1.8 mg): 4.3%
weight loss ([1]; all subjects, 2.4 mg): 3.7%
weight loss ([1]; diabetic subjects, 1.2 mg): 3.3%
weight loss ([1]; diabetic subjects, 1.8 mg): 3.8%
weight loss ([1]; diabetic subjects, 2.4 mg): 4.4%
placebo-adjusted weight loss ([1]; diabetic subjects): 4.5%
weight loss ([1]; non-diabetic subjects, 1.2 mg): 3.4%
weight loss ([1]; non-diabetic subjects, 1.8 mg): 4.9%
weight loss ([1]; non-diabetic subjects, 2.4 mg): 3.5%
placebo-adjusted weight loss ([1]; non-diabetic subjects): 4.7%
mean absolute reduction in liver fat (MRI-PDFF) (liver fat content; 1.2 mg per week, week 24): 11.2%
mean relative reduction in liver fat (MRI-PDFF) (liver fat content; 1.2 mg per week, week 24): 56.3%
liver fat of an exemplary subject (MRI-PDFF) (liver fat content; 1.8 mg dose, Week 24, 32.3% at baseline): 1.7%
mean absolute reduction in liver fat (MRI-PDFF) (liver fat content; 1.8 mg per week, week 24): 17%
mean relative reduction in liver fat (MRI-PDFF) (liver fat content; 1.8 mg per week, week 24): 75.2%
proportion of subjects with normalization (<=5%) in liver fat content (liver fat content; 1.8 mg, week 24): 53.8%
mean absolute reduction in liver fat (MRI-PDFF) (liver fat content; 2.4 mg per week, week 24): 15.6%
mean relative reduction in liver fat (MRI-PDFF) (liver fat content; 2.4 mg per week, week 24): 76.4%
proportion of subjects with normalization (<=5%) in liver fat content (liver fat content; 2.4 mg, week 24): 45.3%
relative liver fat reductions (study conclusion) (liver fat content; 24 weeks): greater than 75%
liver volume (MRI-PDFF) (liver fat content; all doses, week 24): robust reduction in liver volume
percentage of subjects achieving at least 30% and 50% reduction in liver fat content vs placebo (liver fat content; all doses, week 24): highly significant

— patent publication US20240269238A1, “Therapeutic Regimens and Methods for Reducing Body Weight in a Subject with Fatty Liver Disease using a GLP-1R and GCGR Agonist” (Spitfire Pharma LLC, priority 2022, published 2024)
